From the supplement of paper PMC10307832

Tests used:
Test in all cases: relative viability (nuclei count vs DMSO), 5 days (fraction); higher = more cells survive
NCI-H23 = system: NCI-H23
Summary of the method: (§1)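 Lung cancer cell lines in 1536-well plates got either a single drug or a fixed anchor-drug dose together with five library-drug doses (not always all listed) in √10 steps, by pin tool, on the day after seeding. Nuclei were counted after 5 days, and relative viability is the treated-to-vehicle ratio of nuclei counts. Values are medians of duplicate plates.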

NCI-H2087 = system: NCI-H2087
Summary of the method: as §1

NCI-H596 = system: NCI-H596
Summary of the method: as §1

LCLC-103H = system: LCLC-103H
Summary of the method: as §1

NCI-H3122 = system: NCI-H3122
Summary of the method: as §1

NCI-H2347 = system: NCI-H2347
Summary of the method: as §1

NCI-H1395 = system: NCI-H1395
Summary of the method: as §1

NCI-H1993 = system: NCI-H1993
Summary of the method: as §1

NCI-H727 = system: NCI-H727
Summary of the method: as §1

NCI-H2023 = system: NCI-H2023
Summary of the method: as §1

NCI-H650 = system: NCI-H650
Summary of the method: as §1

EMC-BAC-2 = system: EMC-BAC-2
Summary of the method: as §1

NCI-H647 = system: NCI-H647
Summary of the method: as §1

NCI-H838 = system: NCI-H838
Summary of the method: as §1

201T = system: 201T
Summary of the method: as §1

HARA = system: HARA
Summary of the method: as §1

NCI-H441 = system: NCI-H441
Summary of the method: as §1

BEN = system: BEN
Summary of the method: as §1

HCC-44 = system: HCC-44
Summary of the method: as §1

NCI-H2126 = system: NCI-H2126
Summary of the method: as §1

LOU-NH91 = system: LOU-NH91
Summary of the method: as §1

NCI-H1666 = system: NCI-H1666
Summary of the method: as §1

NCI-H2009 = system: NCI-H2009
Summary of the method: as §1

## NC(=O)Nc1cc(-c2cccc(F)c2)sc1C(=O)N[C@H]1CCCNC1 [AZD7762] + CC(=O)Nc1cccc(-n2c(=O)n(C3CC3)c(=O)c3c(Nc4ccc(I)cc4F)n(C)c(=O)c(C)c32)c1 [Trametinib] (partner 0.02 µM)
NCI-H23; first compound 0.01 µM
  relative viability: 0.477
NCI-H23; first compound 0.03162 µM
  relative viability: 0.36
NCI-H23; first compound 0.1 µM
  relative viability: 0.421
NCI-H23; first compound 0.3162 µM
  relative viability: 0.392
NCI-H23; first compound 1 µM
  relative viability: 0.201
NCI-H2087; first compound 0.01 µM
  relative viability: 0.211
NCI-H2087; first compound 0.03162 µM
  relative viability: 0.212
NCI-H2087; first compound 0.1 µM
  relative viability: 0.248
NCI-H2087; first compound 0.3162 µM
  relative viability: 0.333
NCI-H2087; first compound 1 µM
  relative viability: 0.254
NCI-H596; first compound 0.01 µM
  relative viability: 0.931
NCI-H596; first compound 0.03162 µM
  relative viability: 0.8
NCI-H596; first compound 0.1 µM
  relative viability: 0.923
NCI-H596; first compound 0.3162 µM
  relative viability: 0.803
NCI-H596; first compound 1 µM
  relative viability: 0.626
LCLC-103H; first compound 0.01 µM
  relative viability: 0.683
LCLC-103H; first compound 0.03162 µM
  relative viability: 0.674
LCLC-103H; first compound 0.1 µM
  relative viability: 0.712
LCLC-103H; first compound 0.3162 µM
  relative viability: 0.574
LCLC-103H; first compound 1 µM
  relative viability: 0.712
NCI-H3122; first compound 0.01 µM
  relative viability: 0.22
NCI-H3122; first compound 0.03162 µM
  relative viability: 0.231
NCI-H3122; first compound 0.1 µM
  relative viability: 0.223
NCI-H3122; first compound 0.3162 µM
  relative viability: 0.243
NCI-H3122; first compound 1 µM
  relative viability: 0.27
NCI-H2347; first compound 0.01 µM
  relative viability: 0.313
NCI-H2347; first compound 0.03162 µM
  relative viability: 0.279
NCI-H2347; first compound 0.1 µM
  relative viability: 0.281
NCI-H2347; first compound 0.3162 µM
  relative viability: 0.287
NCI-H2347; first compound 1 µM
  relative viability: 0.305
NCI-H1395; first compound 0.01 µM
  relative viability: 1.18
NCI-H1395; first compound 0.03162 µM
  relative viability: 1.12
NCI-H1395; first compound 0.1 µM
  relative viability: 0.92
NCI-H1395; first compound 0.3162 µM
  relative viability: 0.637
NCI-H1395; first compound 1 µM
  relative viability: 0.368
NCI-H1993; first compound 0.01 µM
  relative viability: 0.458
NCI-H1993; first compound 0.03162 µM
  relative viability: 0.482
NCI-H1993; first compound 0.1 µM
  relative viability: 0.605
NCI-H1993; first compound 0.3162 µM
  relative viability: 0.674
NCI-H1993; first compound 1 µM
  relative viability: 0.536
NCI-H727; first compound 0.01 µM
  relative viability: 0.361
NCI-H727; first compound 0.03162 µM
  relative viability: 0.429
NCI-H727; first compound 0.1 µM
  relative viability: 0.358
NCI-H727; first compound 0.3162 µM
  relative viability: 0.366
NCI-H727; first compound 1 µM
  relative viability: 0.299
NCI-H2023; first compound 0.01 µM
  relative viability: 0.596
NCI-H2023; first compound 0.03162 µM
  relative viability: 0.46
NCI-H2023; first compound 0.1 µM
  relative viability: 0.293
NCI-H2023; first compound 0.3162 µM
  relative viability: 0.156
NCI-H2023; first compound 1 µM
  relative viability: 0.132
NCI-H650; first compound 0.01 µM
  relative viability: 0.984
NCI-H650; first compound 0.03162 µM
  relative viability: 1.08
NCI-H650; first compound 0.1 µM
  relative viability: 1.05
NCI-H650; first compound 0.3162 µM
  relative viability: 1.04
NCI-H650; first compound 1 µM
  relative viability: 0.756
EMC-BAC-2; first compound 0.01 µM
  relative viability: 1.02
EMC-BAC-2; first compound 0.03162 µM
  relative viability: 0.84
EMC-BAC-2; first compound 0.1 µM
  relative viability: 0.921
EMC-BAC-2; first compound 0.3162 µM
  relative viability: 0.973
EMC-BAC-2; first compound 1 µM
  relative viability: 0.839
NCI-H647; first compound 0.01 µM
  relative viability: 0.533
NCI-H647; first compound 0.03162 µM
  relative viability: 0.579
NCI-H647; first compound 0.1 µM
  relative viability: 0.456
NCI-H647; first compound 0.3162 µM
  relative viability: 0.384
NCI-H647; first compound 1 µM
  relative viability: 0.16
NCI-H838; first compound 0.01 µM
  relative viability: 0.632
NCI-H838; first compound 0.03162 µM
  relative viability: 0.513
NCI-H838; first compound 0.1 µM
  relative viability: 0.483
NCI-H838; first compound 0.3162 µM
  relative viability: 0.537
NCI-H838; first compound 1 µM
  relative viability: 0.305
201T; first compound 0.01 µM
  relative viability: 0.718
201T; first compound 0.03162 µM
  relative viability: 0.749
201T; first compound 0.1 µM
  relative viability: 0.763
201T; first compound 0.3162 µM
  relative viability: 0.724
201T; first compound 1 µM
  relative viability: 0.852
HARA; first compound 0.01 µM
  relative viability: 0.686
HARA; first compound 0.03162 µM
  relative viability: 0.629
HARA; first compound 0.1 µM
  relative viability: 0.868
HARA; first compound 0.3162 µM
  relative viability: 0.664
HARA; first compound 1 µM
  relative viability: 0.295
NCI-H441; first compound 0.01 µM
  relative viability: 0.511
NCI-H441; first compound 0.03162 µM
  relative viability: 0.574
NCI-H441; first compound 0.1 µM
  relative viability: 0.543
NCI-H441; first compound 0.3162 µM
  relative viability: 0.517
NCI-H441; first compound 1 µM
  relative viability: 0.359
BEN; first compound 0.01 µM
  relative viability: 1.15
BEN; first compound 0.03162 µM
  relative viability: 1.11
BEN; first compound 0.1 µM
  relative viability: 1.09
BEN; first compound 0.3162 µM
  relative viability: 1.09
BEN; first compound 1 µM
  relative viability: 0.968
HCC-44; first compound 0.01 µM
  relative viability: 1.13
HCC-44; first compound 0.03162 µM
  relative viability: 1.04
HCC-44; first compound 0.1 µM
  relative viability: 1.12
HCC-44; first compound 0.3162 µM
  relative viability: 1.15
HCC-44; first compound 1 µM
  relative viability: 1.16
NCI-H2126; first compound 0.01 µM
  relative viability: 0.547
NCI-H2126; first compound 0.03162 µM
  relative viability: 0.629
NCI-H2126; first compound 0.1 µM
  relative viability: 0.529
NCI-H2126; first compound 0.3162 µM
  relative viability: 0.639
NCI-H2126; first compound 1 µM
  relative viability: 0.675
LOU-NH91; first compound 0.01 µM
  relative viability: 0.78
LOU-NH91; first compound 0.03162 µM
  relative viability: 0.793
LOU-NH91; first compound 0.1 µM
  relative viability: 0.761
LOU-NH91; first compound 0.3162 µM
  relative viability: 0.66
LOU-NH91; first compound 1 µM
  relative viability: 0.67
NCI-H1666; first compound 0.01 µM
  relative viability: 0.894
NCI-H1666; first compound 0.03162 µM
  relative viability: 0.898
NCI-H1666; first compound 0.1 µM
  relative viability: 0.927
NCI-H1666; first compound 0.3162 µM
  relative viability: 0.891
NCI-H1666; first compound 1 µM
  relative viability: 0.901
NCI-H2009; first compound 0.01 µM
  relative viability: 0.279
NCI-H2009; first compound 0.03162 µM
  relative viability: 0.35
NCI-H2009; first compound 0.1 µM
  relative viability: 0.207
NCI-H2009; first compound 0.3162 µM
  relative viability: 0.295
NCI-H2009; first compound 1 µM
  relative viability: 0.236
